As a reminder, the IC50 is the point on the concentration scale where inhibition reaches its midpoint. As usually defined, the EC50 is the concentration that produces a half-maximal response.

SMILES strings stand for the structures. Where two headings read alike, the source gives them in different places.

Data set [1] deals with Haemonchus contortus. In words: Larval development assay (xL3 to L4) of H. contortus in vitro. Format: cell-based. Particulars: for IC50: read-out: Inhibition of Larval Development in H. Contortus IC50 (µM) ± SEM; for Anthelmintic activity in the larval development assay (in words): dilution series commencing at 100 µM. The method, then: The Haecon-5 strain of H. contortus was produced in experimental sheep, according to animal ethics guidelines of the University of Melbourne, Australia (permit no.1413429). The feces were collected from the infected sheep and incubated at 27 °C for 1 week, allowing first-stage larvae to emerge and develop to third-stage larvae (L3s). L3s were collected and stored at 10 °C until used in experiments; xL3s were prepared by treating L3s with 0.15% v/v sodium hypochlorite (NaClO) and incubated for 20 min at 38 °C, and subsequently washed five times with sterile physiological saline (pH 7.0). These xL3s were immediately incubated at 38 °C in sterile Luria Bertani (LB) broth supplemented with 100 IU/ml of penicillin, 100 µg/ml of streptomycin, and […] of amphotericin B (fungizone, antibiotic—antimycotic; cat. no. 15240-062; Gibco, Thermo Fisher Scientific, Waltham, MA, USA); this supplemented medium was designated as LB*.
In our previous study, larval development-inhibition results guided the fractionation of the active extract from P. methysticum, and the findings were consistent with subsequent potency assessments of the purified kavalactones. Therefore, the developmental inhibition assay for H. contortus was used to determine the activity/potency of the kavalactone analogues synthesized in the present study. In brief, all synthesized compounds as well as monepantel (Zolvix, Elanco Animal Health, Australia) and moxidectin (Cydectin, Virbac, France) (two positive controls) were individually tested for inhibition of larval development in H. contortus using an 18-point, two-fold dilution series, commencing at 100 µM. Compound solutions (in dimethyl sulfoxide [DMSO] plus LB*) were prepared and added to 96-well flat bottom plates to achieve the desired final concentrations in a final volume of 100 µl, and xL3s (as described in Section 3.2) were dispensed into individual wells at a density of 300 worms per well (in 50 µl of LB*). Matched concentrations of DMSO (0.25% in LB*) were used as negative (untreated) controls. The plates were incubated (10% v/v CO2) at 38 °C for 7 days. Larvae in each well were fixed with 50 µl of 1% iodine at 7 days, and the number of xL3s that developed to L4s in each well was counted by light microscopic examination at 20× magnification. L4s were differentiated from xL3s by their well-developed mouth and pharynx characteristics. The assay was repeated three times on different days using three replicates in each assay. The half-maximum inhibitory concentration (IC50) of each compound was determined by fitting the log10-transformed concentration to a variable slope four-parameter model using the GraphPad Prism (v. 8.3.1) software (GraphPad Software Inc., San Diego, CA, USA).

In data set [2] the test system is HepG2 human hepatoma cells. In words: Cytotoxicity on HepG2 cells (CellTiter-Glo cell viability assay). It counts as cell-based. Particulars: for EC50: Homo sapiens, read-out: HepG2 EC50. The method, then:
Synthesized compounds were tested for their toxicity on HepG2 human hepatoma cells, as described previously. In brief, compounds were tested in a 10-point, two-fold dilution series, commencing at 40 µM. The cells were cultured in Dulbecco’s modified Eagle’s medium (DMEM) supplemented with 10% fetal bovine serum (FBS) and incubated at 37 °C with 5% v/v CO2. The cells were seeded into 384-well plates at a density of 1 × 10^3 per well and exposed to compounds for 48 h. The toxicity was determined by CellTiter-Glo® cell viability assay (Promega, USA), which assessed the number of viable cells based on the quantity of ATP present. Matched percentages of etoposide and DMSO were used as positive and negative (untreated) controls, respectively. The EC50 values were determined as described in Section 3.3, and the selectivity index was calculated by dividing the EC50 value for HepG2 cells by the IC50 value for H. contortus.
In general terms: Cellular ATP, detected with luciferase, serves as a proxy for viable cell number.

The test system of data set [3] is Haemonchus contortus. Also on record: method as in PMID 30739078. Particulars: cited from earlier work; for Phenotype induced in treated larvae / IC50: previous study; for IC50: purchased / isolated kavalactones, read-out: IC50 for inhibition of larval (L4) development of H. contortus.
The subject of data set [4] is MCF10A, non-tumorigenic breast epithelial cells. Details: method as in PMID 30739078. Particulars: in vitro cell proliferation assay; cited from earlier work.
[5] abbreviates: Haemonchus contortus, 168 h, xL3 to L4 development, 7 days, synthesized compounds, mean ± SEM.
Setting [6] is: xL3 to L4 development, 7 days, synthesized compounds, mean ± SEM.
The mark [7] stands for this setting: HepG2, 48 h exposure, CellTiter-Glo, highest concentration 40 µM.

For `CO/N=C1\C[C@]2(C[C@@H]3C[C@@H](C/C=C(\C)C[C@@H](C)/C=C/C=C4\CO[C@@H]5[C@H](O)C(C)=C[C@@H](C(=O)O3)[C@]45O)O2)O[C@H](/C(C)=C/C(C)C)[C@H]1C` [Moxidectin, moxidectin, reference compound], the IC50 in the data set with Haemonchus contortus [1] (setting [5]) was found to be 0.02 µM.

On to `COc1cc(/C=C/c2ccccc2OC)oc(=O)c1` [Compound 14], for which the IC50 is 61.9 µM in the data set with Haemonchus contortus [1] (setting [5]) and over 100 µM in the data set on Haemonchus contortus [1] (setting [6]). In addition, in data set [2] (setting [7]), the EC50 was over 40 µM.

Take `COc1cccc(/C=C/c2cc(OC)cc(=O)o2)c1` [Compound 15]: the IC50 with Haemonchus contortus [1] (setting [5]) is over 100 µM; with Haemonchus contortus [1] (setting [6]), 61.9 ± 7.3 µM. Also, the EC50 in data set [2] (setting [7]) is over 40 µM.

Turning to `CC(C)C[C@H](NC(=O)[C@H](Cc1ccccc1)NC(=O)c1cnccn1)B(O)O` [Bortezomib, reference compound], the EC50 in data set [2] (setting [7]) stood at 0.01 µM.

Consider `COc1cc(/C=C/c2ccc3c(c2)OCO3)oc(=O)c1` [Compound 16], for which, in the data set on Haemonchus contortus [1] (Haemonchus contortus, 168 h), the IC50 was over 100 µM. Also, in data set [2] (HepG2, 48 h), the half-maximal effective concentration (EC50) was over 40 µM.

As to `COc1cc(/C=C/c2ccc(C#N)cc2)oc(=O)c1` [Compound 13], the IC50 with Haemonchus contortus [1] (setting [5]) is over 100 µM. In addition, the “Anthelmintic activity in the larval development assay (in words)” value (“Anthelmintic activity” below) in the data set on Haemonchus contortus [1] was “inactive at the highest concentration tested”. Further, in data set [2] (setting [7]), the EC50 is over 40 µM.

For the compound `COc1cc(/C=C/c2ccc(Oc3ccccc3)cc2)oc(=O)c1` [Compound 5], the IC50 in the data set with Haemonchus contortus [1] (setting [5]) stood at 5.2 ± 2.2 µM. Besides, the EC50 in data set [2] (setting [7]) was over 40 µM.

On to `COc1cc(/C=C/c2ccc(OC)nc2)oc(=O)c1` [Compound 19], for which the IC50 in the data set on Haemonchus contortus [1] (setting [5]) is over 100 µM. Besides, the “Anthelmintic activity” value in the data set on Haemonchus contortus [1] was “inactive at the highest concentration tested”. For the same compound, in data set [2] (setting [7]), the 50% effective concentration (EC50) is over 40 µM.

Consider `COc1cc(/C=C/c2ccc(Cl)cc2)oc(=O)c1` [Compound 6], for which the IC50 in the data set on Haemonchus contortus [1] (setting [5]) was 12.4 ± 3.5 µM. The EC50 in data set [2] (setting [7]) is over 40 µM.

For the compound `COc1cc(/C=C/c2ccc(N3CCNCC3)cc2)oc(=O)c1` [Compound 11], in the data set with Haemonchus contortus [1] (setting [5]), the IC50 was over 100 µM. Also, the “Anthelmintic activity” value in the data set on Haemonchus contortus [1] was “inactive”. The EC50 in data set [2] (setting [7]) was over 40 µM.

As to `COc1cc(/C=C/c2ccc(N3CCOCC3)cc2)oc(=O)c1` [Compound 10], the IC50 in the data set on Haemonchus contortus [1] (setting [5]) came to 6.4 ± 0.2 µM. Also, the EC50 in data set [2] (setting [7]) is over 40 µM.

Regarding `COC1=CC(=O)O[C@@H](CCc2ccccc2)C1` [dihydrokavain, reference compound], in the data set on Haemonchus contortus [3], the “Phenotype induced in treated larvae” value is listed as “lethal ‘evisceration’ (Evi) phenotype” and the concentration for half-maximal inhibition (IC50) is 208 µM. The “Toxicity on MCF10A cells” value in data set [4] is listed as “limited toxicity”.

As to `COC(=O)c1cccc(/C=C/c2cc(OC)cc(=O)o2)c1` [Compound 18], in the data set on Haemonchus contortus [1] (setting [5]), the IC50 is over 100 µM. Moreover, the EC50 in data set [2] (setting [7]) was over 40 µM.

On to `COc1cc(/C=C/c2ccc(C)cc2)oc(=O)c1` [Compound 7], for which the IC50 with Haemonchus contortus [1] (setting [5]) is 12.6 ± 2.1 µM. In data set [2] (setting [7]), the EC50 is over 40 µM.

Regarding `COc1cc(/C=C/c2ccc(N(C)C)cc2)oc(=O)c1` [Compound 9], the IC50 with Haemonchus contortus [1] (setting [5]) is over 50 µM. The “Anthelmintic activity” value in the data set with Haemonchus contortus [1] was “inactive at the highest concentration tested”. Further, the EC50 in data set [2] (setting [7]) is over 40 µM.

`COc1cc(/C=C/c2ccccc2)oc(=O)c1` [Compound 1, desmethoxyyangonin]: in the data set on Haemonchus contortus [1] (setting [5]), the IC50 turned out to be 37.1 ± 3.1 µM. Also, in the data set on Haemonchus contortus [3] (H. contortus), the “Exposure time sufficient to induce the Evi phenotype” value was 30 h. Besides, in the data set on Haemonchus contortus [3], the “Phenotype induced in treated larvae” value was “lethal ‘evisceration’ (Evi) phenotype” and the IC50 was 31.7 µM. Besides, in data set [2] (setting [7]), the EC50 is over 40 µM. Also, the “Toxicity on MCF10A cells” value in data set [4] is on record as “limited toxicity”.

Consider `COc1cc(/C=C/c2cccc(C#N)c2)oc(=O)c1` [Compound 17], for which, in the data set with Haemonchus contortus [1] (setting [5]), the concentration for half-maximal inhibition (IC50) is over 100 µM. The EC50 in data set [2] (setting [7]) was over 40 µM.

In the case of `C[C@](C#N)(COc1cc(C#N)ccc1C(F)(F)F)NC(=O)c1ccc(SC(F)(F)F)cc1` [Monepantel, monepantel, reference compound], the IC50 in the data set on Haemonchus contortus [1] (setting [5]) worked out at 0.07 ± 0.01 µM.

`COc1cc(/C=C/c2ccc(OC(F)F)cc2)oc(=O)c1` [Compound 4]: the IC50 with Haemonchus contortus [1] (setting [5]) was 8.9 ± 0.3 µM. The EC50 in data set [2] (setting [7]) is over 40 µM.

Regarding `COc1ccc(/C=C/c2cc(OC)cc(=O)o2)cc1` [Compound 2, yangonin], the IC50 was 15 ± 3 µM with Haemonchus contortus [1] (setting [5]) and 23.7 µM in the data set with Haemonchus contortus [3]. Also, the “Phenotype induced in treated larvae” value in the data set with Haemonchus contortus [3] is recorded as “lethal ‘evisceration’ (Evi) phenotype”. Besides, in data set [2] (setting [7]), the EC50 is over 40 µM. Moreover, the “Toxicity on MCF10A cells” value in data set [4] was “limited toxicity”.

As to `COC(=O)c1ccc(/C=C/c2cc(OC)cc(=O)o2)cc1` [Compound 12], in the data set with Haemonchus contortus [1] (setting [5]), the IC50 was over 100 µM. Further, the “Anthelmintic activity” value in the data set on Haemonchus contortus [1] is “inactive at the highest concentration tested”. Also, the EC50 in data set [2] (setting [7]) was over 40 µM.

Take `COc1cc(/C=C/c2ccc(C(F)(F)F)cc2)oc(=O)c1` [Compound 8]: the IC50 in the data set on Haemonchus contortus [1] (setting [5]) amounted to 10.3 ± 1.2 µM. In addition, the EC50 in data set [2] (setting [7]) is over 40 µM.

As to `COc1cc(/C=C/c2ccc(OC(F)(F)F)cc2)oc(=O)c1` [Compound 3], the IC50 in the data set with Haemonchus contortus [1] (setting [5]) came out at 1.9 ± 0.1 µM. The concentration giving a half-maximal response (EC50) in data set [2] (setting [7]) was over 40 µM. Further, in data set [2] (against H. contortus), the “Selectivity index (HepG2 EC50 / H. contortus IC50)” value is given as over 20 fold.

Values taken from article PMC7221733, “Synthetic Kavalactone Analogues with Increased Potency and Selective Anthelmintic Activity against Larvae of Haemonchus contortus In Vitro” (Molecules, 2020).
